Values quoted from earlier work as cited in patent publication US20250288728A1, “SYSTEMS AND METHODS FOR GEL-BASED NEUROMODULATION” (Tulavi Therapeutics, Inc., priority 2018, published 2025).

What was measured:
[1] = test system: TRPV1 expressing cardiac nerve endings; conditions: 50 μg/ml RTX (10% ethanol in 10% Tween 80/isotonic saline) painted twice on right and left ventricles
sympathetic ganglia = conditions: in vitro; 4 μg/ml (10 uM); within 36 hours

Compound	duration of complete ablation of TRPV1 expressing cardiac nerve endings [1]	sympathetic ganglia cell death (sympathetic ganglia)
C=C(C)[C@]12C[C@@H](C)[C@@]34O[C@](Cc5ccccc5)(O[C@@H]1[C@@H]3C=C(COC(=O)Cc1ccc(O)c(OC)c1)C[C@]1(O)C(=O)C(C)=C[C@@H]41)O2 [RTX, resiniferatoxin]	over 10 weeks	
Cholesterol oxides		rapid cell sympathetic ganglia cell death
